Common to all, as to format: in vivo
Assay [1] relates to Meloidogyne incognita. In words: Meloidogyne incognita test. The following applies: 336 h, lettuce, after 14 days, read-out: nematicidal efficacy (formation of galls). In outline: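 Active compound in acetone, diluted with water, added to sand-filled vessels with M. incognita eggs/larvae and lettuce seeds. After 14 days, efficacy scored by root gall formation: 100% = no galls, 0% = galls equal to untreated control.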

Assay [2] deals with Myzus persicae. Briefly: Myzus persicae spray test (Chinese cabbage leaf discs). The note with it: foliar, 120 h, 500 g/ha, after 5-6 days, read-out: efficacy. In outline: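 Chinese cabbage leaf discs infested with all stages of green peach aphid were sprayed with compound formulated in acetone/DMF and emulsifier-containing water. Efficacy in % was scored after 5-6 days, with 100% meaning all aphids killed and 0% none killed.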

In assay [3] the test system is Phaedon cochleariae. Briefly: Phaedon cochleariae spray test. The note with it: foliar, 168 h, Chinese cabbage leaf discs, larvae, after 7 days, read-out: efficacy. In outline: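 Compound dissolved in solvent and diluted with water containing 1000 ppm emulsifier to test concentrations. Efficacy read after 7 days as % beetle larvae killed (100% all killed, 0% none).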

In assay [4] the test system is Myzus persicae. Briefly: Myzus persicae oral test. The following applies: 120 h, oral uptake, after 5 days, read-out: efficacy. In outline: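 Compound dissolved in acetone, diluted in water, then mixed 50:150 μl with IPL41 insect medium (33%+15% sugar). Mixed-population green peach aphids feed through a parafilm seal on the solution; mortality scored as % efficacy after 5 days (100% = all killed).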

Consider `Cn1cc(C(=O)NS(=O)(=O)c2ccccc2Cl)nc1-c1c(Cl)cccc1Cl` [Example 100], for which the pest or weed control at 20 ppm in assay [1] came to 90%; in assay [4], 100%. Also, the pest or weed control at 500 g/ha in assay [2] and in assay [3] was 100% each time.

Regarding `Cc1ccccc1S(=O)(=O)NC(=O)c1cn(C)c(-c2cc(Cl)ccc2Cl)n1` [Example 517], the pest or weed control at 20 ppm in assay [1] and in assay [4] was 100% in each case. Moreover, the pest or weed control at 500 g/ha in assay [2] stood at 90%; in assay [3], 100%.

For the compound `Cn1cc(C(=O)NS(=O)(=O)c2c(Br)cccc2C(F)(F)F)nc1-c1c(F)cccc1F` [Example 373], the values for the pest or weed control at 20 ppm in assay [1] and in assay [4] were 90% and 100%, respectively. In addition, the pest or weed control at 500 g/ha in assay [2] and in assay [3] was 100% throughout.

In the case of `Cc1cc(C(=O)NS(=O)(=O)c2cc(Cl)ccc2Br)nn1-c1c(F)cccc1F` [Example 294], the pest or weed control at 20 ppm in assay [1] and in assay [4] was 100% throughout. Also, the pest or weed control at 500 g/ha in assay [2] and in assay [3] was 100% throughout.

On to `Cn1cc(C(=O)NS(=O)(=O)c2cccc3ccccc23)nc1-c1c(F)cccc1F` [Example 510], for which the pest or weed control at 20 ppm in assay [1] was found to be 90%; in assay [4], 100%. The pest or weed control at 500 g/ha in assay [2] and in assay [3] was 100% throughout.

For the compound `Cn1cc(C(=O)NS(=O)(=O)c2ccccc2C(F)(F)F)nc1-c1ccccc1Cl` [Example 58], the pest or weed control at 20 ppm in assay [1] was determined as 90%; in assay [4], 100%. Also, the values for the pest or weed control at 500 g/ha in assay [2] and in assay [3] were 90% and 100%, respectively.

For the compound `CCc1ccc(Cl)cc1S(=O)(=O)NC(=O)c1cn(C)c(-c2c(F)cccc2F)n1` [Example 279], the pest or weed control at 20 ppm in assay [1] and in assay [4] was 100% throughout. The pest or weed control at 500 g/ha in assay [2] is 90%; in assay [3] it was 100%.

Turning to `Cc1cc(Cl)ccc1S(=O)(=O)NC(=O)c1cn(C)c(-c2c(F)cccc2F)n1` [Example 445], the results for the pest or weed control at 20 ppm in assay [1] and in assay [4] were 100% and 90%, respectively. Besides, the pest or weed control at 500 g/ha in assay [2] and in assay [3] was 100% each time.

For `Cn1cc(C(=O)NS(=O)(=O)c2ccc(Br)cc2C(F)(F)F)nc1-c1c(F)cccc1F` [Example 449], the pest or weed control at 20 ppm in assay [1] and in assay [4] was 100% each time. The pest or weed control at 500 g/ha in assay [2] and in assay [3] was 100% in each case.

In the case of `Cn1cc(C(=O)NS(=O)(=O)c2ccc(F)cc2C(F)(F)F)nc1-c1c(F)cccc1F` [Example 448], the pest or weed control at 20 ppm stood at 90% in assay [1] and 100% in assay [4]. The pest or weed control at 500 g/ha in assay [2] and in assay [3] was 100% in each case.

Consider `Cc1cc(C(=O)NS(=O)(=O)c2c(Cl)cccc2Cl)nn1-c1ccccc1Cl` [Example 269], for which the pest or weed control at 20 ppm in assay [1] and in assay [4] was 100% throughout. Moreover, the results for the pest or weed control at 500 g/ha in assay [2] and in assay [3] were 100% and 83%, respectively.

For the compound `Cc1ccccc1S(=O)(=O)NC(=O)c1cn(C)c(-c2ncccc2Br)n1` [Example 579], the pest or weed control at 20 ppm in assay [1] worked out at 90%; in assay [4], 100%. Further, the pest or weed control at 500 g/ha in assay [2] and in assay [3] was 100% throughout.

Take `Cn1cc(C(=O)NS(=O)(=O)c2ccccc2Cl)nc1-c1c(F)cccc1Cl` [Example 106]: the pest or weed control at 20 ppm in assay [1] and in assay [4] was 100% throughout. Also, the values for the pest or weed control at 500 g/ha in assay [2] and in assay [3] were 90% and 100%, respectively.

As for `CCc1ccccc1S(=O)(=O)NC(=O)c1cn(C)c(-c2ncccc2Cl)n1` [Example 581], the pest or weed control at 20 ppm in assay [1] was determined as 100%. Moreover, the pest or weed control at 500 g/ha in assay [2] and in assay [3] was 100% in each case. Further, the pest or weed control at 4 ppm in assay [4] stood at 100%.

With `CCc1ccc(Cl)cc1S(=O)(=O)NC(=O)c1cn(C)c(-c2ncccc2F)n1` [Example 603], the pest or weed control at 20 ppm in assay [1] came to 90%; in assay [4], 100%. Moreover, the pest or weed control at 500 g/ha in assay [2] was determined as 90%; in assay [3] it was 100%.

Regarding `Cc1cc(Br)ccc1S(=O)(=O)NC(=O)c1cn(C)c(-c2c(F)cccc2F)n1` [Example 446], the pest or weed control at 20 ppm amounted to 90% in assay [1] and 100% in assay [4]. For the same compound, the pest or weed control at 500 g/ha in assay [2] stood at 90%; in assay [3], 100%.

As to `Cc1cccc(C)c1S(=O)(=O)NC(=O)c1cn(C)c(-c2ncccc2Cl)n1` [Example 587], the pest or weed control at 20 ppm in assay [1] worked out at 90%; in assay [4], 100%. Also, the pest or weed control at 500 g/ha in assay [2] is 90%; in assay [3], 100%.

`Cc1cc(Br)ccc1S(=O)(=O)NC(=O)c1cn(C)c(-c2ccccc2Cl)n1` [Example 282]: the pest or weed control at 20 ppm in assay [1] and in assay [4] was 100% in each case. In addition, the pest or weed control at 500 g/ha in assay [2] is 90%; in assay [3] it was 100%.

As for `Cc1ccc(S(=O)(=O)NC(=O)c2cn(C)c(-c3c(F)cccc3F)n2)c(Cl)c1` [Example 450], the results for the pest or weed control at 20 ppm in assay [1] and in assay [4] were 100% and 90%, respectively. Moreover, the pest or weed control at 500 g/ha in assay [2] and in assay [3] was 100% each time.

Turning to `Cn1cc(C(=O)NS(=O)(=O)c2cc(Cl)ccc2Cl)nc1-c1c(F)cccc1F` [Example 171], the pest or weed control at 20 ppm in assay [1] and in assay [4] was 100% each time. Further, the pest or weed control at 500 g/ha in assay [2] worked out at 90%; in assay [3], 83%.

`Cc1cccc(C(F)(F)F)c1S(=O)(=O)NC(=O)c1cn(C)c(-c2ncccc2Cl)n1` [Example 586]: the pest or weed control at 20 ppm in assay [1] was 90%. Besides, the pest or weed control at 500 g/ha in assay [2] and in assay [3] was 100% in each case. Besides, in assay [4], the pest or weed control at 4 ppm was found to be 100%.

As for `COc1ccc(Cl)c(S(=O)(=O)NC(=O)c2cn(C)c(-c3ncccc3Cl)n2)c1` [Example 575], the results for the pest or weed control at 20 ppm in assay [1] and in assay [4] were 90% and 100%, respectively. In addition, the pest or weed control at 500 g/ha in assay [2] was 90%; in assay [3], 83%.

In the case of `Cn1cc(C(=O)NS(=O)(=O)c2cc(Br)ccc2Br)nc1-c1ccccc1Cl` [Example 429], the pest or weed control at 20 ppm in assay [1] and in assay [4] was 100% in each case. Moreover, the pest or weed control at 500 g/ha in assay [2] amounted to 90%; in assay [3], 100%.

On to `Cc1cccc(C)c1S(=O)(=O)NC(=O)c1cn(C)c(-c2ncccc2F)n1` [Example 602], for which the pest or weed control at 20 ppm in assay [1] was found to be 90%; in assay [4], 100%. The pest or weed control at 500 g/ha in assay [2] worked out at 90%; in assay [3], 83%.

For the compound `CCc1cccc(OC(F)F)c1S(=O)(=O)NC(=O)c1cn(C)c(-c2c(F)cccc2F)n1` [Example 339], the pest or weed control at 20 ppm in assay [1] and in assay [4] was 100% in each case. For the same compound, the values for the pest or weed control at 500 g/ha in assay [2] and in assay [3] were 90% and 100%, respectively.

For `Cc1ccc(Cl)c(S(=O)(=O)NC(=O)c2cn(C)c(-c3c(F)cccc3F)n2)c1Cl` [Example 434], the pest or weed control at 20 ppm in assay [1] and in assay [4] was 100% throughout. The pest or weed control at 500 g/ha in assay [2] and in assay [3] was 100% each time.

On to `Cc1cccc(C(F)(F)F)c1S(=O)(=O)NC(=O)c1cn(C)c(-c2cccc(Cl)c2Cl)n1` [Example 561], for which the pest or weed control at 20 ppm in assay [1] and in assay [4] was 100% each time. Besides, the pest or weed control at 500 g/ha turned out to be 90% in assay [2] and 100% in assay [3].

For `Cc1cc(F)c(F)cc1S(=O)(=O)NC(=O)c1cn(C)c(-c2c(F)cccc2F)n1` [Example 289], the pest or weed control at 20 ppm in assay [1] came out at 90%; in assay [4], 100%. Further, the pest or weed control at 500 g/ha stood at 90% in assay [2] and 100% in assay [3].

As to `Cc1cccc(Cl)c1S(=O)(=O)NC(=O)c1cn(C)c(-c2ncccc2F)n1` [Example 599], the pest or weed control at 20 ppm in assay [1] and in assay [4] was 100% in each case. The pest or weed control at 500 g/ha in assay [2] and in assay [3] was 100% in each case.

With `Cn1cc(C(=O)NS(=O)(=O)c2cc(Cl)cc(Cl)c2)nc1-c1c(F)cccc1F` [Example 188], the pest or weed control at 20 ppm in assay [1] and in assay [4] was 100% each time. Further, the values for the pest or weed control at 500 g/ha in assay [2] and in assay [3] were 90% and 100%, respectively.

As for `Cc1ccc(C(F)(F)F)cc1S(=O)(=O)NC(=O)c1cn(C)c(-c2c(F)cccc2F)n1` [Example 399], the figures for the pest or weed control at 20 ppm in assay [1] and in assay [4] were 90% and 100%, respectively. Further, the pest or weed control at 500 g/ha in assay [2] and in assay [3] was 100% each time.

For the origin of these results see patent publication US20200288710A1, “SUBSTITUTED SULPHONAMIDES FOR CONTROLLING ANIMAL PESTS” (BAYER CROPSCIENCE AKTIENGESELLSCHAFT, priority 2016, published 2020).
